# Structures can show the parent of a compound that is named as a salt.
# Biological target: T1, epithelial sodium channel (ENaC) (Homo sapiens, UniProt P37088+P51168+P51170)
# T1 construct: host or cells: primary human bronchial epithelial cells (HBECs), air-liquid interface culture
# T1 sequence (P37088 1-669): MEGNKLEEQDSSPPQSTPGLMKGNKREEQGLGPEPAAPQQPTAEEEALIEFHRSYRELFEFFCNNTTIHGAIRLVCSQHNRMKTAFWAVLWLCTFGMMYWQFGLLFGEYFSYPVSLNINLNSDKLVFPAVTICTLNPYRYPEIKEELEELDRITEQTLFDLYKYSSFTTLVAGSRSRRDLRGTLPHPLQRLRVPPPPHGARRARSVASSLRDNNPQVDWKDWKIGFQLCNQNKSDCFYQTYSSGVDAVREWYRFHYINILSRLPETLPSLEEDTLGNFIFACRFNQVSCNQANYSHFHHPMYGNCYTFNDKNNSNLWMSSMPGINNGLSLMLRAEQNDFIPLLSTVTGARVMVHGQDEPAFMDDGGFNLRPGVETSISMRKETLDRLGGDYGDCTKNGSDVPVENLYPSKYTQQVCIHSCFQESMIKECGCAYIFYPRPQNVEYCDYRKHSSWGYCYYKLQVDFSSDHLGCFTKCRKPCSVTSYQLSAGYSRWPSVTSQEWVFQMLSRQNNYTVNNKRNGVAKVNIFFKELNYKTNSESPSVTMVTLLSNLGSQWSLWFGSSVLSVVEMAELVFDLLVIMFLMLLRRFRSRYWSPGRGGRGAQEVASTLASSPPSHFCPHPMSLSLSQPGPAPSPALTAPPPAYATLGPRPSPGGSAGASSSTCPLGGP
# T1 sequence (P51168 1-640): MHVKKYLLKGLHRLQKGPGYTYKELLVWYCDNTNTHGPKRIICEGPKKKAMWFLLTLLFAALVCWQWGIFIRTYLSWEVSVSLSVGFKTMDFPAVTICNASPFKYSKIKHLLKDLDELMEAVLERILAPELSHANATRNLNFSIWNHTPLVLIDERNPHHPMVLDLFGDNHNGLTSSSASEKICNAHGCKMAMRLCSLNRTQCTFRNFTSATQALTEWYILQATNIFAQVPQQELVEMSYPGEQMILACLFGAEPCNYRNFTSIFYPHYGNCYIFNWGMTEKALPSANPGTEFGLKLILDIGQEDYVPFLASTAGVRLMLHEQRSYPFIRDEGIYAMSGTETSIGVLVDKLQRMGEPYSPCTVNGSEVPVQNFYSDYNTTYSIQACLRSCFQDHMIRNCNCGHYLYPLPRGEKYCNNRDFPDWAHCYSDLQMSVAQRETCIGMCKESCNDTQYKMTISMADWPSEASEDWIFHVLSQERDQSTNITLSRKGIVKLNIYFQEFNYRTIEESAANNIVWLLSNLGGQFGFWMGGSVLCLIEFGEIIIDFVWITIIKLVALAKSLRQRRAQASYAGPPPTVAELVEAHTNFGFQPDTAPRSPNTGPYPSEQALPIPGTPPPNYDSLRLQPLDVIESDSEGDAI
# T1 sequence (P51170 1-649): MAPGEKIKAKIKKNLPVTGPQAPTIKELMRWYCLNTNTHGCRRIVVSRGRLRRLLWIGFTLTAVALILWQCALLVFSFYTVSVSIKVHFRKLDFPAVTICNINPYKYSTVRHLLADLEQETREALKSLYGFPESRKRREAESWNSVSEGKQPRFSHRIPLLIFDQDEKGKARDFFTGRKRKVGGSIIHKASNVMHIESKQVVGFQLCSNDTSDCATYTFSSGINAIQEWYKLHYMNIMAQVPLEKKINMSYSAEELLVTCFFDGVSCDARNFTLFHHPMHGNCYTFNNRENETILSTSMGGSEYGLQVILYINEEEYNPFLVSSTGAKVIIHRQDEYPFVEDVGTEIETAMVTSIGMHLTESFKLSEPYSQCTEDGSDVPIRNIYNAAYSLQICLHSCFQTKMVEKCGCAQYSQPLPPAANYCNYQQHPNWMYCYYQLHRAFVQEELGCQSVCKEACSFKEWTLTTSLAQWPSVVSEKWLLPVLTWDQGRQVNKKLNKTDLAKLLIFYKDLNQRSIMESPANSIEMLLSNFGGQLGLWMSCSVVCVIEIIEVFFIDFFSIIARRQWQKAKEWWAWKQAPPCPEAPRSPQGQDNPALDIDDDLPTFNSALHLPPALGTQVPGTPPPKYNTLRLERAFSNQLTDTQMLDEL
# Assay: Short circuit current (ISC) measurements in human bronchial epithelial cells, inhibition of amiloride-sensitive ISC
# Type: cell-based
# Conditions: inhibition of the amiloride-sensitive ISC, HBECs at air-liquid interface, compound added to apical chamber
# Protocol: Compounds of Formula E and their pharmaceutically acceptable salts, hereinafter referred to alternatively as “illustrative ENaC inhibitors of the invention”, are useful as pharmaceuticals. In particular, the compounds have good ENaC blocker activity and may be tested in the following assays.
# Human Bronchial Epithelial cells (HBECs) (Cambrex) were cultured under air-liquid interface conditions to provide a well differentiated mucociliary phenotype.
# HBECs were cultured using a modification of the method described by Gray and colleagues (Gray et al., 1996). […]
# Snapwell inserts were mounted in Vertical Diffusion Chambers (Costar) and were bathed with continuously gassed Ringer solution (5% CO2 in O2; pH 7.4) maintained at 37° C. containing (in mM): 120 NaCl, 25 NaHCO3, 3.3 KH2PO4, 0.8 K2HPO4, 1.2 CaCl2, 1.2 MgCl2, and 10 glucose. […] RT was measured by applying a 1- or 2-mV pulse at 30-s intervals and calculating RT by Ohm's law. Data were recorded using a PowerLab workstation (ADInstruments).
# Test compounds were prepared as a 10 mM stock solution in DMSO (95%). […] At the completion of the concentration-response experiment, amiloride (10 μM) was added into the apical chamber to enable the total amiloride-sensitive current to be measured. […]
# Results are expressed as the mean % inhibition of the amiloride-sensitive ISC. […]
row,IC50,Structure (SMILES)
1,5 nM,"CCCC1N/C(=N/C(=O)c2nc(Cl)c(N)nc2N)NC1CCCc1ccc(OCC(O)CO)cc1 (stereo in doubt) [Example 29, (E)-3,5-diamino-6-chloro-N-(4-(3-(4-((S)-2,3-dihydroxypropoxy)phenyl)propyl)-5-propylimidazolidin-2-ylidene)pyrazine-2-carboxamide hydrochloride]"
2,11.9 nM,"Cc1oc(-c2ccccc2)nc1COc1ccc(S(=O)(=O)N2CCC3(CC2)CN/C(=N\C(=O)c2nc(Cl)c(N)nc2N)N3)cc1 [Example 238, 3,5-Diamino-6-chloro-pyrazine-2-carboxylic acid [8-[4-(5-methyl-2-phenyl-oxazol-4-ylmethoxy)-benzenesulfonyl]-1,3,8-triaza-spiro[4.5]dec-(2E)-ylidene]-amide]"

# Biological target: T2, ΔF508-CFTR (Homo sapiens, UniProt P13569, DEL508-508)
# T2 construct: expressed in transfected cells
# Assay: Membrane potential optical (FRET/VIPR) assay, identification of potentiator compounds, NIH3T3 cells expressing ΔF508-CFTR
# Type: cell-based
# Conditions: Table II.A-4; EC50 of certain embodiments
# Description: I) Membrane Potential Optical Methods for Assaying ΔF508-CFTR Modulation Properties of Compounds
# The optical membrane potential assay utilized voltage-sensitive FRET sensors described by Gonzalez and Tsien (See, Gonzalez, J. E. and R. Y. Tsien (1995) “Voltage sensing by fluorescence resonance energy transfer in single cells” Biophys J 69(4): 1272-80, and Gonzalez, J. E. and R. Y. Tsien (1997) “Improved indicators of cell membrane potential that use fluorescence resonance energy transfer” Chem Biol 4(4): 269-77) in combination with instrumentation for measuring fluorescence changes such as the Voltage/Ion Probe Reader (VIPR) (See, Gonzalez, J. E., K. Oades, et al. (1999) “Cell-based assays and instrumentation for screening ion-channel targets” Drug Discov Today 4(9): 431-439).
# These voltage sensitive assays are based on the change in fluorescence resonant energy transfer (FRET) between the membrane-soluble, voltage-sensitive dye, DiSBAC2(3), and a fluorescent phospholipid, CC2-DMPE, which is attached to the outer leaflet of the plasma membrane and acts as a FRET donor. Changes in membrane potential (Vm) cause the negatively charged DiSBAC2(3) to redistribute across the plasma membrane and the amount of energy transfer from CC2-DMPE changes accordingly. The changes in fluorescence emission were monitored using VIPR™ II, which is an integrated liquid handler and fluorescent detector designed to conduct cell-based screens in 96- or 384-well microtiter plates.
# To identify potentiators of ΔF508-CFTR, a double-addition HTS assay format was developed. During the first addition, a Cl^−-free medium with or without test compound was added to each well. After 22 sec, a second addition of Cl^−-free medium containing 2-10 μM forskolin was added to activate ΔF508-CFTR. The extracellular Cl^− concentration following both additions was 28 mM, which promoted Cl^− efflux in response to ΔF508-CFTR activation and the resulting membrane depolarization was optically monitored using the FRET-based voltage-sensor dyes. Solutions
# Bath Solution #1: (in mM) NaCl 160, KCl 4.5, CaCl2 2, MgCl2 1, HEPES 10, pH 7.4 with NaOH. Chloride-free bath solution: Chloride salts in Bath Solution #1 are substituted with gluconate salts. CC2-DMPE: Prepared as a 10 mM stock solution in DMSO and stored at −20° C. DiSBAC2(3): Prepared as a 10 mM stock in DMSO and stored at −20° C.
# NIH3T3 mouse fibroblasts stably expressing ΔF508-CFTR are used for optical measurements of membrane potential. The cells are maintained at 37° C. in 5% CO2 and 90% humidity in Dulbecco's modified Eagle's medium supplemented with 2 mM glutamine, 10% fetal bovine serum, 1× NEAA, β-ME, 1× pen/strep, and 25 mM HEPES in 175 cm^2 culture flasks. […]
# T2 sequence (P13569 with tags, fused parts or gaps DEL508-508): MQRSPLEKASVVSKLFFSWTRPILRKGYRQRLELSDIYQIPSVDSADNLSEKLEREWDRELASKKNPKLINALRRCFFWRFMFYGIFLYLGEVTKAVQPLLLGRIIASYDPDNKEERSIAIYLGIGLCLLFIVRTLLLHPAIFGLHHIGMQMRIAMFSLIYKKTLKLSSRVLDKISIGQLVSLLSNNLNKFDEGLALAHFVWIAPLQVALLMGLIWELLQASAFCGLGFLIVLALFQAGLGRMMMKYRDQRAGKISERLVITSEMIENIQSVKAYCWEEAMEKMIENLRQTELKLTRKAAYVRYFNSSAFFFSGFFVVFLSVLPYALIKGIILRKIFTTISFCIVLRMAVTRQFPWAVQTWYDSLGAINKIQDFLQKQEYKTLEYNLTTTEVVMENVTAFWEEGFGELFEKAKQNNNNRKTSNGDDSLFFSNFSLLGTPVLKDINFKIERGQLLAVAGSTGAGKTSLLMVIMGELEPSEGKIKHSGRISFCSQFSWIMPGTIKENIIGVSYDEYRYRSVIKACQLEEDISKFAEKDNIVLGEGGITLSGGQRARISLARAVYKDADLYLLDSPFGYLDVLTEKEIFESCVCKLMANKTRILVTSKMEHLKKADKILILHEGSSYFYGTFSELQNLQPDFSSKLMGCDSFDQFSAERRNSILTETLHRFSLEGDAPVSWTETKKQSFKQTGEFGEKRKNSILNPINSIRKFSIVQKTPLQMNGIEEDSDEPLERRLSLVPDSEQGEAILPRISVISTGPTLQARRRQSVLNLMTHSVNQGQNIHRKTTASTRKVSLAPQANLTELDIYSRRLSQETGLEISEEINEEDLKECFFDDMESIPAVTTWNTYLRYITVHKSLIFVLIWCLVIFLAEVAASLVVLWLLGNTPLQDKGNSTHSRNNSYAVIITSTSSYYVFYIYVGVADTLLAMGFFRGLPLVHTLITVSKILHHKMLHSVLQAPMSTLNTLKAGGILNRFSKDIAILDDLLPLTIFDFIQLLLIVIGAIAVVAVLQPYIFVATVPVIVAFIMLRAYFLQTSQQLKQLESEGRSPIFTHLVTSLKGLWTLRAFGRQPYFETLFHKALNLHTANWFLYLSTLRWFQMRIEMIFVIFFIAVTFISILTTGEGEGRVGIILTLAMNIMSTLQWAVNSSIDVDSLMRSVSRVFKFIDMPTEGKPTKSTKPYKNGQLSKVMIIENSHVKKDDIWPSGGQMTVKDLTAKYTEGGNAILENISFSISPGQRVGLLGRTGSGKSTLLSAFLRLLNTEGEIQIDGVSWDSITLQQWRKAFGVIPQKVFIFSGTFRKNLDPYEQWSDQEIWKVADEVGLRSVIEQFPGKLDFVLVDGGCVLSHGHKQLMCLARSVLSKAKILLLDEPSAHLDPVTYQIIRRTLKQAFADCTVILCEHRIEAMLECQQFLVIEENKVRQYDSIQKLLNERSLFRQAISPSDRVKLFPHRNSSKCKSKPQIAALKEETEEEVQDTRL
row,EC50,Structure (SMILES)
1,< 10 µM,"O=C(Nc1ccc(N2CCOCC2)cc1)c1c[nH]c2ccccc2c1=O [compound 457, N-(4-morpholinophenyl)-4-oxo-1H-quinoline-3-carboxamide]"
2,< 10 µM,"Nc1cccc(NC(=O)c2c[nH]c3ccccc3c2=O)c1 [compound 431, N-(3-aminophenyl)-4-oxo-1H-quinoline-3-carboxamide]"
3,10 to 25 µM,"O=C(Nc1ccccc1Oc1ccccc1)c1c[nH]c2ccccc2c1=O [compound 413, 4-oxo-N-(2-phenoxyphenyl)-1H-quinoline-3-carboxamide]"
4,< 10 µM,"CC(C)(C)OC(=O)NCC(C)(C)c1ccc(NC(=O)c2c[nH]c3ccccc3c2=O)cc1 [compound 88, [2-methyl-2-[4-[(4-oxo-1H-quinolin-3-yl)carbonylamino]phenyl]-propyl]aminoformic acid tert-butyl ester]"

# Reference: patent US20140329814A2, “Compositions for Treatment of Cystic Fibrosis and Other Chronic Diseases” (Vertex Pharmaceuticals Incorporated, priority 2010, published 2014)
